What was measured:
[1] = Safety and tolerability in Phase I single-dose trial; type: in vivo, human healthy subjects; conditions: single doses of 200 mg TMC125, healthy subjects
Excerpt: No clinically relevant safety issues were identified with respect to the parameters studied, including AEs, laboratory and cardiovascular safety, and physical and skin examinations.

[2] = background statement; cited from earlier work

Compound: Cc1cc(C#N)cc(C)c1Oc1nc(Nc2ccc(C#N)cc2)nc(N)c1Br [TMC125, 4-[[6-amino-5-bromo-2-[(4-cyanophenyl)amino]-4-pyrimidinyl]oxy]-3,5-dimethylbenzonitrile]
- safety and tolerability (AEs, laboratory, cardiovascular, physical and skin examinations) [1]: generally safe and well tolerated
- solubility in aqueous media [2]: very insoluble

Reference: patent US20110082161A1, “POWDERS FOR RECONSTITUTION” (priority 2008, published 2011)
